For assay [1], the system named is N. gonorrhoeae WHO M. Put plainly: Liquid broth MIC in Fastidious broth. The settings on record: Neisseria gonorrhoeae.
Assay [2] deals with N. gonorrhoeae WHO K. Put plainly: Liquid broth MIC in Fastidious broth. To be noted: Neisseria gonorrhoeae.
Protocol: (§1) Liquid broth-based assays were used for antibacterial testing of PBP inhibitors in Neisseria gonorrhoeae. Briefly, cryo-preserved bacterial cultures of clinical strains were streaked for isolation on Chocolate Agar (72 g/L (2×) GC Agar Base (BD #228950) and 2% (2×) Hemoglobin was autoclaved at 121° C. for 20 minutes to sterilize. Once cooled to ˜50° C. the 2×GC Agar Base and 2× Hemoglobin solutions are combined and 1% IsoVitaleX Enrichment (BD #211876) was added to the solution). Strains were incubated at 36° C. and 5% CO2 to allow growth of colonies, 24 hours before inoculum preparation. 2-fold serial dilutions of test compounds were conducted in a 96 well plate with a final volume of 75 μL per well at 2-fold the final desired concentration in Fastidious broth (Remel #R07664). For preparation of assay inoculum, a direct suspension was prepared by aseptically swabbing 10-15 colonies from agar plates into culture tubes containing 2 mL of fresh sterile saline. After the dilution plates were set up, direct suspensions were then diluted in a cuvette containing sterile saline and the optical density was measured at 600 nm. Inocula were diluted such that 75 μL of this culture in Fastidious broth results in a starting bacterial concentration of 5×10^5 CFU/mL when added to the dilution plates. The plates were incubated for ˜24 hours at 36° C. and 5% CO2.
Assay [3] concerns N. gonorrhoeae WHO Q. Description: Liquid broth MIC in Fastidious broth. To be noted: Neisseria gonorrhoeae.
Assay [4] deals with N. gonorrhoeae CDC-0197. Put plainly: Liquid broth MIC in Fastidious broth. To be noted: Neisseria gonorrhoeae.
For assay [5], the system named is N. gonorrhoeae WHO Z. Description: Liquid broth MIC in Fastidious broth. To be noted: Neisseria gonorrhoeae.
The test system of assay [6] is N. gonorrhoeae MS11. Put plainly: Liquid broth MIC in Fastidious broth. The settings on record: Neisseria gonorrhoeae.
Assay [7] has as its system N. gonorrhoeae WHO X. Description: Liquid broth MIC in Fastidious broth. To be noted: Neisseria gonorrhoeae.
Protocol: as §1
Assay [8] relates to N. gonorrhoeae WHO L. Put plainly: Liquid broth MIC in Fastidious broth. The settings on record: Neisseria gonorrhoeae.
Protocol: as §1
Assay [9] deals with T1, PBP1a from Acinetobacter baumannii (ATCC 19606) (Acinetobacter baumannii, UniProt A0ABX6CK30).
T1 sequence (A0ABX6CK30 1-851): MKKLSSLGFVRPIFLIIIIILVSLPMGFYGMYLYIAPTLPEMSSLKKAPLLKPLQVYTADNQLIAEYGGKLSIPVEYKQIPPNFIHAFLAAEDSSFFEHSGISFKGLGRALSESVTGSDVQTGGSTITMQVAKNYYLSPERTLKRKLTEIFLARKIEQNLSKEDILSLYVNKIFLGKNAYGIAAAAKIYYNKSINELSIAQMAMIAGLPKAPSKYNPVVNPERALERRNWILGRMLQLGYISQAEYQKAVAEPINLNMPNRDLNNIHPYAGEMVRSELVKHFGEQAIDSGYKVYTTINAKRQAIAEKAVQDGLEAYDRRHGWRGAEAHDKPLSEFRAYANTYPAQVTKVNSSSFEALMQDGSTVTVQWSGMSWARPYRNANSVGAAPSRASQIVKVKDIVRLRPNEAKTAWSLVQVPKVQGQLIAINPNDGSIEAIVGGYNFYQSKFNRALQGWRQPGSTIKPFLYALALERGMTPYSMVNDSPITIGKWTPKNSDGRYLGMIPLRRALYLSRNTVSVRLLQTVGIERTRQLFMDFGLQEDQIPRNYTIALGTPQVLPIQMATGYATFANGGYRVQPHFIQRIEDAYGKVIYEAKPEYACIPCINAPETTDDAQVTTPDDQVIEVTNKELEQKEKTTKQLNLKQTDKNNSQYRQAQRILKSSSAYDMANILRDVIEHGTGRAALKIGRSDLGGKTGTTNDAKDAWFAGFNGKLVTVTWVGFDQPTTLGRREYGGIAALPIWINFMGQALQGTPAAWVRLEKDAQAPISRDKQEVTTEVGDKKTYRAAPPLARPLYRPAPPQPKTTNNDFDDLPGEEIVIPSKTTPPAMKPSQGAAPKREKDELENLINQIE
Put plainly: Bocillin-FL fluorescence polarization competition binding, A. baumannii PBP1a. To be noted: fluorescence polarization competition binding assay using Bocillin-FL; read-out: A. baumannii PBP1a Potency. The method in brief: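 Purified PBPs pre-incubated with inhibitor (E. coli PBP3 1.5 μM, 30 min; P. aeruginosa PBP3 0.75 μM, A. baumannii PBP1a 1 μM and PBP3 0.2 μM, 15 min), then Bocillin-FL 0.1 μM (0.05 μM for PBP1a) added; FP read up to 60 min. EC50 = concentration halving bound Bocillin-FL.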
(Fluorescence polarisation rises when a labelled molecule tumbles more slowly, as on binding a larger partner.)

[10] abbreviates: read-out: Minimum Inhibitory Concentration (MIC), N. gonorrhoeae WHO M.
[11] abbreviates: read-out: Minimum Inhibitory Concentration (MIC), N. gonorrhoeae WHO K.
[12] abbreviates: read-out: Minimum Inhibitory Concentration (MIC), N. gonorrhoeae WHO Q.
Setting [13] is: CDC0197, read-out: Minimum Inhibitory Concentration (MIC), N. gonorrhoeae CDC-0197.
Where [14] appears, read: read-out: Minimum Inhibitory Concentration (MIC), N. gonorrhoeae WHO Z.
Setting [15] is: MS11, read-out: Minimum Inhibitory Concentration (MIC), N. gonorrhoeae MS11.
[16] abbreviates: read-out: Minimum Inhibitory Concentration (MIC), N. gonorrhoeae WHO X.
The mark [17] stands for this setting: read-out: Minimum Inhibitory Concentration (MIC), N. gonorrhoeae WHO L.

SMILES strings stand for the structures. pIC50: −log10 of the molar value. Values after ≈ are worked out from the molar mass of the structure shown. Read-outs that look alike come from different tables or passages of the source.

On to `CS(=O)(=O)N1CCN(C(=O)N[C@H](C(=O)N[C@H]2Cc3cccc(C(=O)O)c3OB2O)c2ccc(P(=O)(O)O)cc2)C1=O` (single isomer, unassigned) [Example 5], for which the MIC is below 1 µg/mL in assay [1] (setting [10]); 1 to 2 µg/mL (≈ 1.64 to 3.28 µM) in assay [2] (setting [11]); below 1 µg/mL in assay [3] (setting [12]); below 1 µg/mL in assay [4] (setting [13]); below 1 µg/mL in [5] (setting [14]); below 1 µg/mL in [6] (setting [15]). Further, the MIC in assay [7] (setting [16]) and in assay [8] (setting [17]) was 4 to 8 µg/mL (≈ 6.55 to 13.1 µM) throughout.
Consider `O=C(NCCCS(=O)(=O)N1CCN(C(=O)NC(C(=O)N[C@H]2Cc3ccc(F)c(C(=O)O)c3OB2O)c2cc(F)c(O)c(O)c2Cl)C1=O)Nc1cccc(O)c1` (stereo partly drawn) [Example 277, (3R)-3-(2-(2-chloro-5-fluoro-3,4-dihydroxyphenyl)-2-(3-((3-(3-(3-hydroxyphenyl)ureido)propyl)sulfonyl)-2-oxoimidazolidine-1-carboxamido)acetamido)-7-fluoro-2-hydroxy-3,4-dihydro-2H-benzo[e][1,2]oxaborinine-8-carboxylic acid], for which the MIC in assay [1] (read-out: Minimum Inhibitory Concentration, WHO M) was 16 to 32 µg/mL (≈ 19.7 to 39.5 µM); in assay [2] (read-out: Minimum Inhibitory Concentration, WHO K) it was above 64 µg/mL; in assay [3] (read-out: Minimum Inhibitory Concentration, WHO Q), 16 to 32 µg/mL (≈ 19.7 to 39.5 µM); in assay [4] (CDC0197, read-out: Minimum Inhibitory Concentration, CDC-0197) it was 16 to 32 µg/mL (≈ 19.7 to 39.5 µM); in assay [5] (read-out: Minimum Inhibitory Concentration, WHO Z), 16 to 32 µg/mL (≈ 19.7 to 39.5 µM); in assay [6] (MS11, read-out: Minimum Inhibitory Concentration, MS11), 16 to 32 µg/mL (≈ 19.7 to 39.5 µM). Besides, the MIC in assay [7] (read-out: Minimum Inhibitory Concentration, WHO X) is above 64 µg/mL; in [8] (read-out: Minimum Inhibitory Concentration, WHO L), above 64 µg/mL. The pIC50 in [9] was below 3.60.
Regarding `NCCN1CCN(C(=O)NC(C(=O)N[C@H]2Cc3cccc(C(=O)O)c3OB2O)c2ccc(P(=O)(O)O)cc2)C(=O)C1=O` (stereo partly drawn) [Example 3, (3R)-3-(2-(4-(2-aminoethyl)-2,3-dioxopiperazine-1-carboxamido)-2-(4-phosphonophenyl)acetamido)-2-hydroxy-3,4-dihydro-2H-benzo[e][1,2]oxaborinine-8-carboxylic acid], the MIC in assay [1] (setting [10]) was below 1 µg/mL; in assay [2] (setting [11]), 4 to 8 µg/mL (≈ 6.63 to 13.3 µM); in assay [3] (setting [12]), 1 to 2 µg/mL (≈ 1.66 to 3.32 µM); in assay [4] (setting [13]) it was 1 to 2 µg/mL (≈ 1.66 to 3.32 µM); in assay [5] (setting [14]) it was 1 to 2 µg/mL (≈ 1.66 to 3.32 µM); in assay [6] (setting [15]), 1 to 2 µg/mL (≈ 1.66 to 3.32 µM). For the same molecule, the MIC in assay [7] (setting [16]) and in [8] (setting [17]) was 4 to 8 µg/mL (≈ 6.63 to 13.3 µM) each time.
With `O=C(O)c1c(F)ccc2c1OB(O)[C@@H](NC(=O)C(NC(=O)N1CCN(CC3CCN(C(=O)c4cccc(O)c4)CC3)C(=O)C1=O)c1cc(F)c(O)c(O)c1Cl)C2` (stereo partly drawn) [Example 475, (3R)-3-(2-(2-chloro-5-fluoro-3,4-dihydroxyphenyl)-2-(4-((1-(3-hydroxybenzoyl)piperidin-4-yl)methyl)-2,3-dioxopiperazine-1-carboxamido)acetamido)-7-fluoro-2-hydroxy-3,4-dihydro-2H-benzo[e][1,2]oxaborinine-8-carboxylic acid], the pIC50 in assay [9] is below 3.60.
With `CCN1CCN(C(=O)NC(C(=O)N[C@H]2Cc3cccc(C(=O)O)c3OB2O)c2cc(P(=O)(O)O)ccc2F)C(=O)C1=O` (stereo partly drawn) [Example 2, (3R)-3-(2-(4-ethyl-2,3-dioxopiperazine-1-carboxamido)-2-(2-fluoro-5-phosphonophenyl)acetamido)-2-hydroxy-3,4-dihydro-2H-benzo[e][1,2]oxaborinine-8-carboxylic acid], the MIC fell in the range of 4 to 8 µg/mL (≈ 6.6 to 13.2 µM) in [1] (setting [10]); 16 to 32 µg/mL (≈ 26.4 to 52.8 µM) in [2] (setting [11]); 4 to 8 µg/mL (≈ 6.6 to 13.2 µM) in [3] (setting [12]); 4 to 8 µg/mL (≈ 6.6 to 13.2 µM) in [4] (setting [13]); 4 to 8 µg/mL (≈ 6.6 to 13.2 µM) in [5] (setting [14]); 4 to 8 µg/mL (≈ 6.6 to 13.2 µM) in assay [6] (setting [15]). The MIC is 16 to 32 µg/mL (≈ 26.4 to 52.8 µM) in [7] (setting [16]) and above 64 µg/mL in [8] (setting [17]).
In the case of `O=C(O)c1c(F)ccc2c1OB(O)[C@@H](NC(=O)C(NC(=O)N1CCN(CC3CCN(C(=O)Nc4cccc(O)c4)CC3)C(=O)C1=O)c1cc(F)c(O)c(O)c1Cl)C2` (stereo partly drawn) [Example 477, (3R)-3-(2-(2-chloro-5-fluoro-3,4-dihydroxyphenyl)-2-(4-((1-((3-hydroxyphenyl)carbamoyl)piperidin-4-yl)methyl)-2,3-dioxopiperazine-1-carboxamido)acetamido)-7-fluoro-2-hydroxy-3,4-dihydro-2H-benzo[e][1,2]oxaborinine-8-carboxylic acid], the pIC50 in [9] was below 3.60.
Turning to `O=C(O)c1c(F)ccc2c1OB(O)[C@@H](NC(=O)C(NC(=O)N1CCN(C3CCN(C(=O)Nc4cccc(O)c4F)CC3)C(=O)C1=O)c1cc(F)c(O)c(O)c1Cl)C2` (stereo partly drawn) [Example 478, (3R)-3-(2-(2-chloro-5-fluoro-3,4-dihydroxyphenyl)-2-(4-(1-((2-fluoro-3-hydroxyphenyl)carbamoyl)piperidin-4-yl)-2,3-dioxopiperazine-1-carboxamido)acetamido)-7-fluoro-2-hydroxy-3,4-dihydro-2H-benzo[e][1,2]oxaborinine-8-carboxylic acid], the pIC50 in assay [9] was below 3.60.
Take `CCN1CCN(C(=O)NC(C(=O)N[C@H]2Cc3cccc(C(=O)O)c3OB2O)c2ccc(P(=O)(O)O)cc2F)C(=O)C1=O` (stereo partly drawn) [Example 1, (3R)-3-(2-(4-ethyl-2,3-dioxopiperazine-1-carboxamido)-2-(2-fluoro-4-phosphonophenyl)acetamido)-2-hydroxy-3,4-dihydro-2H-benzo[e][1,2]oxaborinine-8-carboxylic acid]: the MIC in [1] (setting [10]), in assay [2] (setting [11]), in [3] (setting [12]), in assay [4] (setting [13]), in assay [5] (setting [14]) and in assay [6] (setting [15]) was below 1 µg/mL throughout. Also, the MIC in assay [7] (setting [16]) and in assay [8] (setting [17]) was 1 to 2 µg/mL (≈ 1.65 to 3.3 µM) throughout.
For the molecule `CS(=O)(=O)N1CCN(C(=O)N[C@@H](C(=O)N[C@H]2Cc3cccc(C(=O)O)c3OB2O)c2ccc(P(=O)(O)O)cc2)C1=O` (single isomer, unassigned) [Example 6], the MIC in assay [1] (setting [10]), in assay [2] (setting [11]), in assay [3] (setting [12]), in assay [4] (setting [13]), in assay [5] (setting [14]) and in assay [6] (setting [15]) was below 1 µg/mL throughout. Further, the MIC in assay [7] (setting [16]) and in assay [8] (setting [17]) was below 1 µg/mL each time.
Turning to `O=C(O)c1cccc2c1OB(O)[C@@H](NC(=O)C(NC(=O)N1CCN(CC(F)(F)F)C(=O)C1=O)c1ccc(P(=O)(O)O)cc1)C2` (stereo partly drawn) [Example 4, (3R)-3-(2-(2,3-dioxo-4-(2,2,2-trifluoroethyl)piperazine-1-carboxamido)-2-(4-phosphonophenyl)acetamido)-2-hydroxy-3,4-dihydro-2H-benzo[e][1,2]oxaborinine-8-carboxylic acid], the MIC in assay [1] (setting [10]) was below 1 µg/mL; in assay [2] (setting [11]), 1 to 2 µg/mL (≈ 1.56 to 3.11 µM); in assay [3] (setting [12]) it was 1 to 2 µg/mL (≈ 1.56 to 3.11 µM); in assay [4] (setting [13]) it was 1 to 2 µg/mL (≈ 1.56 to 3.11 µM); in [5] (setting [14]), 1 to 2 µg/mL (≈ 1.56 to 3.11 µM); in assay [6] (setting [15]), below 1 µg/mL. Also, the MIC in assay [7] (setting [16]) and in assay [8] (setting [17]) was 4 to 8 µg/mL (≈ 6.23 to 12.5 µM) in each case.

Values taken from US20240270762A1, “PENICILLIN-BINDING PROTEIN INHIBITORS” (priority 2021, published 2024).
